# Source: patent publication US20070202166A1, “Method for increasing the rate and consistency of bioavailability of supplemental dietary ingredients” (priority 2006, published 2007)
# Entries after “also recorded” stand apart in the source; their conditions may differ.
# Assays:
# Type in all cases: physicochemical
# [1] = Time to dissolve in stirred water, estimated by visual inspection; conditions: for Time taken to dissolve: 100 mL water, constant stirring
# Method: In order to determine the effect of fine-milling on the dissolution rate, initial testing was performed to examine the rate of dissolution of common supplemental dietary ingredients. For the purposes of this disclosure, the term “regular” as used herein makes reference to non-fine-milled particles. 100 mL of water was placed into a 250 mL beaker and a magnetic stirrer bar was added to the beaker. The beaker was then placed on a magnetic stirrer was set to constant speed. […] The time required to dissolve was estimated by visual inspection. Equal amounts of the fine-milled ingredients were then added to the water and the time required to dissolve was estimated by visual inspection.
# [2] = Solubility test: powder added to stirred water until saturated, gravity filtered, dry residue on filter paper weighed; conditions: Whatman 41 filter paper, particle retention 20-25 μm
# Method: In order to test the capacity of fine-milling to improve the rate bioavailability of substances, a simple test was performed. The test was conceived to mimic various elements involved in the processes of oral administration of a nutritional supplement. The key parameters involved were rate of dissolution and solubility, as it is understood that an ingested nutrient must be dissolved or reduced to a bio-transportable size in order to be utilized biochemically by the body.
# The rates of dissolution and solubility of regular common nutritional supplements were compared to fine-milled versions within a fixed time. […] 100 mL of water was added to a 250 mL beaker and a magnetic stirring bar was placed in the beaker. The beaker was placed on a magnetic stirrer and stirred with low speed. 1 g of a given supplemental dietary ingredient powder was added incrementally to the beaker with the stirring speed constant until the solution visually appeared saturated. The solution was filtered by gravity through a pre-weighed filter paper (Whatman 41, particle retention 20-25 μm). […]
# The ‘Fold Change’ represents the change in the amount of substance unable to pass through the filter as calculated by the amount of unfiltered regular substance divided by the amount of unfiltered fine-milled substance and represents the potential theoretical improvement in bioavailability.
# [3] = Kinetic dissolution experiment: 1 g in 50 mL water, filtered at 1 and 5 minutes
# Method: In order to expand on the results of the aforenoted experiments, a kinetic experiment was conducted to examine the change in the dissolution rate over short time periods.
# 1 g of sample was added to 50 mL water in a flask with a magnetic stir bar on a stirrer set at constant speed. Separate samples were filtered at 1 and 5 minutes. The pre-weighed filter papers (Whateman 41, particle retention 20-25 μm) were allowed to dry and the amount of sample remaining on the filter paper was determined.
smiles,measurement,setting,value
CN(CC(=O)O)C(=N)N.O [Creatine Monohydrate],Time taken to dissolve,"[1]; Fine-milled powder, same amount as regular",<5 min
same,"Rate of dissolving, fine-milled compared with regular (in words)",[1]; Monohydrate,appeared to dissolved at the same rate in both the fine-milled and regular formats; also recorded: did not display a difference dependent on particle size
same,Time taken to dissolve,[1]; Regular (non-milled) powder,<5 min
same,Dry Powder On Filter,[2]; Fine-milled powder,0.01 g
same,Dry Powder On Filter,[2]; Regular powder,0.19 g
same,weight of unfiltered sample,"[3]; Fine-milled, 1-minute interval, Monohydrate",0.33 g
same,weight of unfiltered sample,"[3]; Fine-milled, 1-minute interval, listed as creatine, Monohydrate",0.32 g
same,weight of unfiltered sample,"[3]; Fine-milled, 5-minute interval",0.27 g
same,weight of unfiltered sample,"[3]; Regular, 1-minute interval, listed as Creatine monohydrate, Monohydrate",0.32 g
same,weight of unfiltered sample,"[3]; Regular, 1-minute interval, listed as creatine, Monohydrate",0.33 g
same,weight of unfiltered sample,"[3]; Regular, 5-minute interval",0.40 g
